According to patent US12295973B2 (Fred Hutchinson Cancer Center, priority 2017, dated 2025):
Where a SMILES comes first, the peptide text is derived from it. [ ]: non-standard residue; d: D form. The star is where a group is joined. dPhe(4-NHCONH2) = NC(=O)Nc1ccc(C[C@@H](N)C(=O)O)cc1; Dihydroorotyl(S) = O=C1C[C@@H](C(=O)*)NC(=O)N1; dPhe(4-Cl) = N[C@H](Cc1ccc(Cl)cc1)C(=O)O; Phe(4-NH2) = Nc1ccc(C[C@H](N)C(=O)O)cc1; d2Nal = N[C@H](Cc1ccc2ccccc2c1)C(=O)O; Lys(iPr) = CC(C)NCCCC[C@H](N)C(=O)O; d3Pal = N[C@H](Cc1cccnc1)C(=O)O

Columns and labels:
[1] = tested on: mice exposed to L-TBI; assay: Mouse survival after lethal total body irradiation (L-TBI, 840cGy); assay type: in vivo
Text: Description. Inhibition of sex steroids, which can be achieved in a reversible fashion pharmacologically, is a well-described strategy to promote lymphopoiesis in the BM and thymus^8,7,14,15. Although the most common method of sex steroid ablation clinically has been to use LHRH-agonists, it was described that an LHRH-Antagonist represents a more rational approach to promote immediate ablation of sex steroids for immune regeneration as it is far more rapid and abrogates the initial surge in sex steroids that LHRH-Agonist cause^16. Taken together with the impact of sex steroid inhibition on HSC function and the rapid regenerative effects of LHRH-Ant, it was hypothesized that LHRH-Ant could represent a rational non-cellular medical countermeasure for mitigating radiation injury and promoting hematopoietic regeneration when administered after hematopoietic insult. […] It was then tested if LHRH-Ant could mediate even greater mouse survival when administered multiple times.
Methods. […] B6.SJL-Ptprca Pepcb/BoyJ (CD45.1) male mice (The Jackson Laboratory) were used between 7 and 12 weeks of age for transplant. Mice were irradiated with a Gammacell 40 Irradiator (Cs-137), with an average dose rate of 95 cGy/min, in a plexiglass mouse pie cage. To assess mouse survival after radiation, mice were monitored for up to 60 days after TBI. To adjust for differences in weight, identical mice were purchased from Jackson and cages randomly distributed over different groups. All animal protocols were approved by the Memorial Sloan Kettering Cancer Center Institutional Animal Care and Use Committee.
Reagents: Degarelix (as acetate), a LHRH-Ant (Firmagon), was resuspended in sterile water for injection and administered S.C. to mice at a dose of 40 mg/kg. To evaluate the radiomitigative effect of LHRH-Ant on survival, mice were treated subcutaneously (S.C.) with a single injection of the LHRH-Ant or a saline control solution (PBS). Degarelix was purchased from the Memorial Sloan-Kettering Cancer Center Pharmacy. […] MDV3100 (selleckchem) was resuspended in a mixture of 45% PBS, 45% PEG and 10% DMSO and administered daily to mice by oral gavage at a dose of 10 mg/kg. 5-FU (InvivoGen) was administered to mice intraperitoneally (I.P.) at a dose of 150 mg/kg once every 7 days consecutively for 3 times as previously described^34,47,49.

[2] = tested on: mice challenged with successive doses of 5-FU; assay: Mouse survival after serial 5-fluorouracil (5-FU) challenge; assay type: in vivo; details: 5-FU 150 mg/kg I.P. once every 7 days, 3 times
Text: To test whether this LHRH-Ant-mediated preservation of HSC quiescence and enhancement of HSC survival after hematopoietic stress could confer protection against chemotherapy-induced myeloablation, mice were challenged with successive doses of 5-fluorouracil (5-FU); a well-established method to functionally test HSC proliferation and self-renewal that leads to ablation of proliferating HSCs and ultimately death^29,34,47.
(§1) Reagents: Degarelix (as acetate), a LHRH-Ant (Firmagon), was resuspended in sterile water for injection and administered S.C. to mice at a dose of 40 mg/kg. To evaluate the radiomitigative effect of LHRH-Ant on survival, mice were treated subcutaneously (S.C.) with a single injection of the LHRH-Ant or a saline control solution (PBS). Degarelix was purchased from the Memorial Sloan-Kettering Cancer Center Pharmacy. […] LH from human pituitary (SIGMA) was resuspended in PBS for in vitro studies. MDV3100 (selleckchem) was resuspended in a mixture of 45% PBS, 45% PEG and 10% DMSO and administered daily to mice by oral gavage at a dose of 10 mg/kg. 5-FU (InvivoGen) was administered to mice intraperitoneally (I.P.) at a dose of 150 mg/kg once every 7 days consecutively for 3 times as previously described^34,47,49.

[3] = tested on: LT-HSCs; assay: Cell cycle status of LT-HSCs in Poly I:C and SL-TBI models, surgically castrated mice; assay type: in vivo, mouse
Protocol: To further validate this hypothesis, two additional models were used to force HSCs out of their quiescence phase, Poly I:C and sub-lethal dose of total body irradiation (SL-TBI)^35,42,43. To eliminate any potential effects of downstream sex steroids on HSCs, all cohorts of mice in these studies had been surgically castrated.
as §1, with “described^34,47,49. […]” for “described^34,47,49.”

## CC(=O)N[C@H](Cc1ccc2ccccc2c1)C(=O)N[C@H](Cc1ccc(Cl)cc1)C(=O)N[C@H](Cc1cccnc1)C(=O)N[C@@H](CO)C(=O)N[C@@H](Cc1ccc(NC(=O)[C@@H]2CC(=O)NC(=O)N2)cc1)C(=O)N[C@H](Cc1ccc(NC(N)=O)cc1)C(=O)N[C@@H](CC(C)C)C(=O)N[C@@H](CCCCNC(C)C)C(=O)N1CCC[C@H]1C(=O)N[C@H](C)C(N)=O [LHRH-Ant, Degarelix] (Ac-[d2Nal][dPhe(4-Cl)][d3Pal]S[Phe(4-NH2)](Dihydroorotyl(S))[dPhe(4-NHCONH2)]L[Lys(iPr)]P[dA]-NH2)
[1]; LHRH-Ant given 24 h after L-TBI, vs vehicle, male mice
  survival after L-TBI: significant increase in survival
[1]; administered 48 h after L-TBI
  survival after L-TBI: significantly enhanced mouse survival
[1]; female mice
  survival after L-TBI in female mice: statistically significant benefit in survival
[1]; male mice castrated 5 days prior to TBI, simultaneous LHRH-Ant
  survival after L-TBI in surgically castrated mice: restored the benefits in mouse survival
[1]; treatment 24 h and 15 days after L-TBI, vs single treatment
  survival after L-TBI, multiple administrations: did not significantly enhance the survival benefit
[2]
  survival after serial 5-FU challenge: significantly improved survival
[3]; Poly I:C model
  LT-HSCs in G0: retained significantly more LT-HSCs in G0
[3]; SL-TBI model
  LT-HSCs in G0: retained significantly more LT-HSCs in G0
